# From patent US10662146B2, “Prodrugs of fencamfamine” (Praxis Bioresearch, LLC, priority 2015, dated 2020)
# Where “and” joins values, the source holds several entries; their conditions need not be identical. Equal entries are not always repeated. Where two headings read alike, the source gives them in different places.
# Experiment: Single dose oral PK study in male Sprague Dawley rats (plasma by LC-MS/MS)
# Assay type: in vivo
# Conditions: for AUC(0-inf) / AUC(0-t) / half-life / Cmax / MRT last: po; for AUC(0-inf): read-out: AUCinf of PRX-P5-006; for AUC(0-t): read-out: AUClast of PRX-P5-006; for half-life: read-out: T1/2 of PRX-P5-006 (converted); for MRT last: read-out: MRTlast of PRX-P5-006
# Description: We describe here PK results of prodrugs of PRX-002 (−) or (+) isomers. All doses of prodrugs were administered such that they were equivalent to 5 mg/kg of PRX-002 (−) or (+) for oral studies and 2 mg/kg PRX-002 (−) or (+) for intravenous studies in male Sprague-Dawley (MSD) rats. Higher doses of up to 10 or 15 mg/kg [again equivalent to PRX-002 (−)] were used in some studies (as specified)]. Formulation preparation, dose administration and time of sample collection was as follows.
# Test item was weighed [5 mg equivalent dose of PRX-002 for prodrugs] and transferred to a graduated tube. Then 10 μL of Tween 80 was added and vortexed mixed until the test item was completely mixed. Small volume of 0.5% (w/v) carboxymethylcellulose in water solution was then added dropwise with continuous vortex mixing until a uniform suspension was obtained. The final volume was then made up to 10 mL with 0.5% (w/v) carboxymethylcellulose in water with final strength of 0.5 mg/mL. […] This formulation was freshly prepared before the administration to animals.
# (§1) Adult male Sprague Dawley Rats aged 8-10 weeks were used for the study. Fasted animals were administered test item by oral route with a dose of 5 mg/kg body weight at dose volume of 10 mL/kg body weight. Under mild isoflurane anesthesia, blood specimens were collected by retro-orbital puncture method using capillary tubes into pre-labeled tubes containing anticoagulant (K2EDTA-2 mg/mL blood) during the next 24 hours of post dose as mentioned in below table. For blood sampling at multiple time points, right and left eyes were used alternatively for blood collection. Collected blood specimens were centrifuged at 4000 rpm, 4° C. for 10 minutes and plasma were separated and stored at −80° C. until analysis.
# Blood was collected as outlined in Table 39.1 (oral).
# Test item PRX-P4-003 was weighed and transferred to a graduated tube. Then 12.42 μL of Tween 80 was added and vortexed mixed until the test item was completely mixed. Small volume of 0.5% (w/v) Carboxymethylcellulose in water solution was then added dropwise with continuous vortex mixing until a uniform suspension was obtained. The final volume was then made up to 12.42 mL with 0.5% (w/v) Carboxymethylcellulose in water with final strength of 1.0 mgA/mL. […] This formulation was freshly prepared before the administration to animals.
# as §1, with “with a PRX-P4-003” for “test item”, “10” for “5”
# Test item PRX-P5-006 was weighed and transferred to a graduated tube. Then 10 μL of Tween 80 was added and vortexed mixed until the test item was completely mixed. Small volume of 0.5% (w/v) Carboxymethylcellulose in water solution was then added dropwise with continuous vortex mixing until a uniform suspension was obtained. The final volume was then made up to 10 mL with 0.5% (w/v) Carboxymethylcellulose in water with final strength of 3.97 mg/mL. […] This formulation was freshly prepared before the administration to animals.
# Adult male Sprague Dawley Rats aged 8-10 weeks were used for the study. Fasted animals were administered with a PRX-P5-006 by oral route with a dose of 15 mg/kg body weight at dose volume of 10 mL/kg body weight. […]
# [1] = PRX-P5-006 oral 5 mg/kg b.w., individual animals, 5 mg/kg
# [2] = PRX-P5-006 oral 5 mg/kg, mean, 5 mg/kg
# [3] = male, Sprague Dawley, rat, in vivo, 5 mg/kg, PRX-P5-006 oral 5 mg/kg, mean
# [4] = male, Sprague-Dawley, rat, in vivo, 5 mg/kg, PRX-P5-006 oral 5 mg/kg b.w., individual animals
smiles,measurement,setting,value
"CCCCCCCCCCCCCCCCCC(=O)OC(C)OC(=O)N(CC)C1C2CCC(C2)C1c1ccccc1 (single isomer, unassigned) [PRX-P5-006, N-(1-Octadecanoyloxyethoxycarbonyl)-(−)-N-ethyl-3-phenylbicyclo[2.2.1]heptan-2-amine]",AUC% extrap of PRX-P5-006,[1],62.02% and 50.02% and 31.64%
same,AUCinf of PRX-P5-006,[1],132.93 ng·h/mL and 88.37 ng·h/mL
same,AUClast of PRX-P5-006,[1],66.44 ng·h/mL and 60.40 ng·h/mL
same,Cmax of PRX-P5-006,[1],72.65 ng/mL and 67.85 ng/mL
same,MRTlast of PRX-P5-006,[1],1.05 h
same,T1/2 of PRX-P5-006,[1],3.31 h and 1.91 h
same,AUC% extrap of PRX-P5-006,[2],47.896 ± 15.3010% and 47.896%
same,T1/2 of PRX-P5-006,[2],2.907 h
same,AUC(0-inf),[3],115 ± 23.3 ng·h/mL
same,AUC(0-t),[3],57.8 ± 10.2 ng·h/mL
same,half-life,[3],2.91 ± 0.865 h
same,Cmax,"male, Sprague Dawley, rat, in vivo, 15 mg/kg, oral 15 mg/kg (footnote *), analyte: prodrug in plasma, mean, read-out: Oral PK Parameters Cmax, Prodrug",81.6 ± 42.2 ng/mL
same,Tmax,"male, Sprague Dawley, rat, in vivo, oral 5 mg/kg [equivalent to PRX-002 (−)], analyte: prodrug in plasma, mean, read-out: Oral PK Parameters Tmax, Prodrug",0 h
same,AUC,"male, Sprague Dawley, rat, in vivo, oral 15 mg/kg (footnote *), analyte: prodrug in plasma, mean, read-out: Oral PK Parameters AUC, Prodrug",477 ± 54.4 ng·h/mL
same,Tmax,"male, Sprague Dawley, rat, in vivo, oral 15 mg/kg (footnote *), analyte: prodrug in plasma, mean, read-out: Oral PK Parameters Tmax, Prodrug",0.8 ± 0.3 h
same,AUC(0-inf),[4],123 ng·h/mL
same,AUC(0-t),[4],46.6 ng·h/mL
same,Cmax,"male, Sprague-Dawley, rat, in vivo, 5 mg/kg, PRX-P5-006 oral 5 mg/kg b.w., individual animals, read-out: Cmax of PRX-P5-006",43.9 ng/mL
same,MRT last,[4],1.1 h
same,half-life,[4],3.5 h
same,Cmax,"male, Sprague-Dawley, rat, in vivo, 5 mg/kg, PRX-P5-006 oral 5 mg/kg, mean, read-out: Cmax of PRX-P5-006",61.5 ± 15.4 ng/mL
same,MRT last,"male, Sprague-Dawley, rat, in vivo, 5 mg/kg, PRX-P5-006 oral 5 mg/kg, mean",1.07 ± 0.025 h
same,Tmax,"male, Sprague-Dawley, rat, in vivo, PRX-P5-006 oral 5 mg/kg, mean, read-out: Tmax of PRX-P5-006",1 h
"CCCCCCCCCCCCCCCCCC(=O)OC(C)OC(=O)N(CC)C1C2CCC(C2)C1c1ccccc1 (single isomer, unassigned) [PRX-P5-011, N-(1-Octadecanoyloxyethoxycarbonyl)-(+)-N-ethyl-3-phenylbicyclo[2.2.1]heptan-2-amine]",Plasma concentration of PRX-P5-011,"PRX-P5-011 oral (5 mg/kg equivalent), 0.00 h, individual animals",0.00 ng/mL
same,Plasma concentration of PRX-P5-011,"PRX-P5-011 oral (5 mg/kg equivalent), 0.00 h, mean",0.000 ng/mL
same,Plasma concentration of PRX-P5-011,"PRX-P5-011 oral (5 mg/kg equivalent), 0.08 h, individual animals",0.00 ng/mL
same,Plasma concentration of PRX-P5-011,"PRX-P5-011 oral (5 mg/kg equivalent), 0.08 h, mean",0.000 ng/mL
same,Plasma concentration of PRX-P5-011,"PRX-P5-011 oral (5 mg/kg equivalent), 0.25 h, individual animals",0.00 ng/mL
same,Plasma concentration of PRX-P5-011,"PRX-P5-011 oral (5 mg/kg equivalent), 0.25 h, mean",0.000 ng/mL
same,Plasma concentration of PRX-P5-011,"PRX-P5-011 oral (5 mg/kg equivalent), 0.50 h, individual animals",0.00 ng/mL
same,Plasma concentration of PRX-P5-011,"PRX-P5-011 oral (5 mg/kg equivalent), 0.50 h, mean",0.000 ng/mL
same,Plasma concentration of PRX-P5-011,"PRX-P5-011 oral (5 mg/kg equivalent), 1.00 h, individual animals",0.00 ng/mL
same,Plasma concentration of PRX-P5-011,"PRX-P5-011 oral (5 mg/kg equivalent), 1.00 h, mean",0.000 ng/mL
same,Plasma concentration of PRX-P5-011,"PRX-P5-011 oral (5 mg/kg equivalent), 2.00 h, individual animals",0.00 ng/mL
same,Plasma concentration of PRX-P5-011,"PRX-P5-011 oral (5 mg/kg equivalent), 2.00 h, mean",0.000 ng/mL
same,Plasma concentration of PRX-P5-011,"PRX-P5-011 oral (5 mg/kg equivalent), 4.00 h, individual animals",0.00 ng/mL
same,Plasma concentration of PRX-P5-011,"PRX-P5-011 oral (5 mg/kg equivalent), 4.00 h, mean",0.000 ng/mL
same,Plasma concentration of PRX-P5-011,"PRX-P5-011 oral (5 mg/kg equivalent), 6.00 h, individual animals",0.00 ng/mL
same,Plasma concentration of PRX-P5-011,"PRX-P5-011 oral (5 mg/kg equivalent), 6.00 h, mean",0.000 ng/mL
same,Plasma concentration of PRX-P5-011,"PRX-P5-011 oral (5 mg/kg equivalent), 24.00 h, individual animals",0.00 ng/mL
same,Plasma concentration of PRX-P5-011,"PRX-P5-011 oral (5 mg/kg equivalent), 24.00 h, mean",0.000 ng/mL
same,Active compound PRX-002 (+) in plasma,PRX-P5-011 oral administration,not detected
same,concentration at 0 h,"male, Sprague-Dawley, rat, in vivo, PRX-P5-011 oral (5 mg/kg equivalent), 0.00 h, individual animals, read-out: Plasma concentration of PRX-P5-011",0 ng/mL
same,concentration at 0.08 h,"male, Sprague-Dawley, rat, in vivo, PRX-P5-011 oral (5 mg/kg equivalent), 0.08 h, individual animals, read-out: Plasma concentration of PRX-P5-011",0 ng/mL
same,concentration at 0.25 h,"male, Sprague-Dawley, rat, in vivo, PRX-P5-011 oral (5 mg/kg equivalent), 0.25 h, individual animals, read-out: Plasma concentration of PRX-P5-011",0 ng/mL
same,concentration at 0.5 h,"male, Sprague-Dawley, rat, in vivo, PRX-P5-011 oral (5 mg/kg equivalent), 0.50 h, individual animals, read-out: Plasma concentration of PRX-P5-011",0 ng/mL
same,concentration at 1 h,"male, Sprague-Dawley, rat, in vivo, PRX-P5-011 oral (5 mg/kg equivalent), 1.00 h, individual animals, read-out: Plasma concentration of PRX-P5-011",0 ng/mL
same,concentration at 2 h,"male, Sprague-Dawley, rat, in vivo, PRX-P5-011 oral (5 mg/kg equivalent), 2.00 h, individual animals, read-out: Plasma concentration of PRX-P5-011",0 ng/mL
same,concentration at 4 h,"male, Sprague-Dawley, rat, in vivo, PRX-P5-011 oral (5 mg/kg equivalent), 4.00 h, individual animals, read-out: Plasma concentration of PRX-P5-011",0 ng/mL
same,concentration at 6 h,"male, Sprague-Dawley, rat, in vivo, PRX-P5-011 oral (5 mg/kg equivalent), 6.00 h, individual animals, read-out: Plasma concentration of PRX-P5-011",0 ng/mL
same,concentration at 24 h,"male, Sprague-Dawley, rat, in vivo, PRX-P5-011 oral (5 mg/kg equivalent), 24.00 h, individual animals, read-out: Plasma concentration of PRX-P5-011",0 ng/mL
same,"Oral PK Parameters Tmax, Prodrug","oral 5 mg/kg [equivalent to PRX-002 (−)], analyte: prodrug in plasma, mean",0 h
